Like-named read-outs stand apart in the source and are kept apart here.
Target: T1, jack bean α-mannosidase (Canavalia ensiformis, UniProt C0HJB3)
T1 construct: purchased Sigma–Aldrich
T1 sequence (C0HJB3 1-981): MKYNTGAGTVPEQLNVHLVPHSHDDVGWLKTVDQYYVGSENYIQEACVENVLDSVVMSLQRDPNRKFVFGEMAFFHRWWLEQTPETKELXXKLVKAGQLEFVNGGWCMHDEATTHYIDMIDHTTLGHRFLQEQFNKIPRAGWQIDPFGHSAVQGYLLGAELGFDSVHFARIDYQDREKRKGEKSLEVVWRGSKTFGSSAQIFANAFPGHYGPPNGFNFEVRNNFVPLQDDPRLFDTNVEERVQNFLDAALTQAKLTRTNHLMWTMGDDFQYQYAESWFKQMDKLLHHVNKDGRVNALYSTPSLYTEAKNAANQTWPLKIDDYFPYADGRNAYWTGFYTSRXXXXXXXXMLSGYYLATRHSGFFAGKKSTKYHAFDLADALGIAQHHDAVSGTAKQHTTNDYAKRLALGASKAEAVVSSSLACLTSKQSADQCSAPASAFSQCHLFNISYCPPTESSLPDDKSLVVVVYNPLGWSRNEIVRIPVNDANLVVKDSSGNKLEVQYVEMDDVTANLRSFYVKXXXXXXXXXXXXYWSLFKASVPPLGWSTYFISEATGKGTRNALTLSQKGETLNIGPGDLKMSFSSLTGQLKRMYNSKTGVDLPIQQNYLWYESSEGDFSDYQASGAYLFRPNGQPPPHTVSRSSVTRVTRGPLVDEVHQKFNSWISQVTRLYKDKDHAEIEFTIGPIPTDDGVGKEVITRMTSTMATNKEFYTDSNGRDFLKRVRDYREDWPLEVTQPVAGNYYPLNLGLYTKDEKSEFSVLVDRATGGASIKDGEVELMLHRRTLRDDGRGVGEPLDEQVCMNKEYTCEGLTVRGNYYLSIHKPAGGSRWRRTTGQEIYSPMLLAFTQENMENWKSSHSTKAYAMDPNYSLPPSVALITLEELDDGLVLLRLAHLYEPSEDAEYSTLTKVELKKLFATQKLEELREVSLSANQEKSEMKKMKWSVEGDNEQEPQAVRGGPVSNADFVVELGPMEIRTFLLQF
Assay: Jack bean α-mannosidase inhibition assay (Ki, Dixon method)
Assay type: biochemical
Conditions: for rp (relative inhibition potency): Ki (monovalent reference)/Ki (glycocluster), reference 11a for C6, 11b for C9 linker; for rp/n: relative inhibition potency/number of iminosugar units (valency-corrected)
Procedure: General procedure for inhibition assay
The p-nitrophenyl-α-D-mannopyranoside and α-mannosidase (EC 3.2.1.24, from jack bean, […]
The release of p-nitrophenol was measured continuously at 385 nm to determine initial velocities.[1] All kinetics were performed at 35 °C and started by substrate addition in a 1 mL assay medium (acetate buffer, 0.2 M, pH = 5) containing α-mannosidase (5 mU), substrate (varying concentration from Km/4 to Km value) in presence or absence of various concentrations of inhibitor. Ki […]
are only partially soluble in water, they were dissolved in DMSO for concentrated mother solutions and DMSO/buffer for diluted solutions with a final DMSO concentration under […]
2,5% in all vials. […]
1 Behr, J.-B.; Chevrier, C.; Defoin, A.; Tarnus, C.; Streith, J. Tetrahedron 2003, 59, 543–553.
2 Segel, I. H. Enzyme Kinetics; John Wiley & Sons, New York, 1975, p. 109–144.

[1] = α-mannosidase EC 3.2.1.24 (5 mU), substrate p-nitrophenyl-α-D-mannopyranoside Km/4 to Km, acetate buffer 0.2 M pH 5, 35 °C, p-nitrophenol release at 385 nm, DMSO under 2,5%, Dixon graphical method, determined in duplicate, read-out: Ki

SMILES | Ki [1] | rp (relative inhibition potency) | rp/n | Ki | further results
O=C1CN(Cc2cn(CCCCCCN3C[C@H](O)[C@@H](O)[C@H](O)[C@H]3CO)nn2)C(=O)CN(Cc2cn(CCCCCCN3C[C@H](O)[C@@H](O)[C@H](O)[C@H]3CO)nn2)C(=O)CN(Cc2cn(CCCCCCN3C[C@H](O)[C@@H](O)[C@H](O)[C@H]3CO)nn2)C(=O)CN(Cc2cn(CCCCCCN3C[C@H](O)[C@@H](O)[C@H](O)[C@H]3CO)nn2)C(=O)CN(Cc2cn(CCCCCCN3C[C@H](O)[C@@H](O)[C@H](O)[C@H]3CO)nn2)C(=O)CN1Cc1cn(CCCCCCN2C[C@H](O)[C@@H](O)[C@H](O)[C@H]2CO)nn1 [Compound 10a] | 65 ± 24 µM |  |  |  | 
O=C1CN(Cc2cn(CCCCCCCCCN3C[C@H](O)[C@@H](O)[C@H](O)[C@H]3CO)nn2)C(=O)CN(Cc2cn(CCCCCCCCCN3C[C@H](O)[C@@H](O)[C@H](O)[C@H]3CO)nn2)C(=O)CN(Cc2cn(CCCCCCCCCN3C[C@H](O)[C@@H](O)[C@H](O)[C@H]3CO)nn2)C(=O)CN(Cc2cn(CCCCCCCCCN3C[C@H](O)[C@@H](O)[C@H](O)[C@H]3CO)nn2)C(=O)CN(Cc2cn(CCCCCCCCCN3C[C@H](O)[C@@H](O)[C@H](O)[C@H]3CO)nn2)C(=O)CN1Cc1cn(CCCCCCCCCN2C[C@H](O)[C@@H](O)[C@H](O)[C@H]2CO)nn1 [Compound 10b] | 11 ± 1 µM | 17 | 2.8 |  | 
O=C1CN(Cc2cn(CCCCCCN3C[C@H](O)[C@@H](O)[C@H](O)[C@H]3CO)nn2)C(=O)CN(Cc2cn(CCCCCCN3C[C@H](O)[C@@H](O)[C@H](O)[C@H]3CO)nn2)C(=O)CN(Cc2cn(CCCCCCN3C[C@H](O)[C@@H](O)[C@H](O)[C@H]3CO)nn2)C(=O)CN(Cc2cn(CCCCCCN3C[C@H](O)[C@@H](O)[C@H](O)[C@H]3CO)nn2)C(=O)CN(Cc2cn(CCCCCCN3C[C@H](O)[C@@H](O)[C@H](O)[C@H]3CO)nn2)C(=O)CN(Cc2cn(CCCCCCN3C[C@H](O)[C@@H](O)[C@H](O)[C@H]3CO)nn2)C(=O)CN(Cc2cn(CCCCCCN3C[C@H](O)[C@@H](O)[C@H](O)[C@H]3CO)nn2)C(=O)CN1Cc1cn(CCCCCCN2C[C@H](O)[C@@H](O)[C@H](O)[C@H]2CO)nn1 [Compound 10c] |  |  |  | 21 ± 2 µM | 
O=C1CN(Cc2cn(CCCCCCCCCN3C[C@H](O)[C@@H](O)[C@H](O)[C@H]3CO)nn2)C(=O)CN(Cc2cn(CCCCCCCCCN3C[C@H](O)[C@@H](O)[C@H](O)[C@H]3CO)nn2)C(=O)CN(Cc2cn(CCCCCCCCCN3C[C@H](O)[C@@H](O)[C@H](O)[C@H]3CO)nn2)C(=O)CN(Cc2cn(CCCCCCCCCN3C[C@H](O)[C@@H](O)[C@H](O)[C@H]3CO)nn2)C(=O)CN(Cc2cn(CCCCCCCCCN3C[C@H](O)[C@@H](O)[C@H](O)[C@H]3CO)nn2)C(=O)CN(Cc2cn(CCCCCCCCCN3C[C@H](O)[C@@H](O)[C@H](O)[C@H]3CO)nn2)C(=O)CN(Cc2cn(CCCCCCCCCN3C[C@H](O)[C@@H](O)[C@H](O)[C@H]3CO)nn2)C(=O)CN1Cc1cn(CCCCCCCCCN2C[C@H](O)[C@@H](O)[C@H](O)[C@H]2CO)nn1 [Compound 10d] |  |  |  | 8 ± 3 µM | 
O=C1CN(Cc2cn(CCCCCCN3C[C@H](O)[C@@H](O)[C@H](O)[C@H]3CO)nn2)C(=O)CN(Cc2cn(CCCCCCN3C[C@H](O)[C@@H](O)[C@H](O)[C@H]3CO)nn2)C(=O)CN(Cc2cn(CCCCCCN3C[C@H](O)[C@@H](O)[C@H](O)[C@H]3CO)nn2)C(=O)CN(Cc2cn(CCCCCCN3C[C@H](O)[C@@H](O)[C@H](O)[C@H]3CO)nn2)C(=O)CN(Cc2cn(CCCCCCN3C[C@H](O)[C@@H](O)[C@H](O)[C@H]3CO)nn2)C(=O)CN(Cc2cn(CCCCCCN3C[C@H](O)[C@@H](O)[C@H](O)[C@H]3CO)nn2)C(=O)CN(Cc2cn(CCCCCCN3C[C@H](O)[C@@H](O)[C@H](O)[C@H]3CO)nn2)C(=O)CN(Cc2cn(CCCCCCN3C[C@H](O)[C@@H](O)[C@H](O)[C@H]3CO)nn2)C(=O)CN(Cc2cn(CCCCCCN3C[C@H](O)[C@@H](O)[C@H](O)[C@H]3CO)nn2)C(=O)CN1Cc1cn(CCCCCCN2C[C@H](O)[C@@H](O)[C@H](O)[C@H]2CO)nn1 [Compound 10e] |  | 21 | 2.1 |  | Ki (as E1 but single determination of Ki without duplicate): 15 ± 10 µM
O=C1CN(Cc2cn(CCCCCCCCCN3C[C@H](O)[C@@H](O)[C@H](O)[C@H]3CO)nn2)C(=O)CN(Cc2cn(CCCCCCCCCN3C[C@H](O)[C@@H](O)[C@H](O)[C@H]3CO)nn2)C(=O)CN(Cc2cn(CCCCCCCCCN3C[C@H](O)[C@@H](O)[C@H](O)[C@H]3CO)nn2)C(=O)CN(Cc2cn(CCCCCCCCCN3C[C@H](O)[C@@H](O)[C@H](O)[C@H]3CO)nn2)C(=O)CN(Cc2cn(CCCCCCCCCN3C[C@H](O)[C@@H](O)[C@H](O)[C@H]3CO)nn2)C(=O)CN(Cc2cn(CCCCCCCCCN3C[C@H](O)[C@@H](O)[C@H](O)[C@H]3CO)nn2)C(=O)CN(Cc2cn(CCCCCCCCCN3C[C@H](O)[C@@H](O)[C@H](O)[C@H]3CO)nn2)C(=O)CN(Cc2cn(CCCCCCCCCN3C[C@H](O)[C@@H](O)[C@H](O)[C@H]3CO)nn2)C(=O)CN(Cc2cn(CCCCCCCCCN3C[C@H](O)[C@@H](O)[C@H](O)[C@H]3CO)nn2)C(=O)CN1Cc1cn(CCCCCCCCCN2C[C@H](O)[C@@H](O)[C@H](O)[C@H]2CO)nn1 [Compound 10f] |  |  |  | 5 ± 1 µM | 
